Assay results as given in patent publication US20080299131A1, “Anti-Viral Compositions” (priority 2004, published 2008).
Entries after “also recorded” stand apart in the source; their conditions may differ.

Tests used:
[1] = Tolerability of polyanions administered to mice; conditions: for adverse effects after intraperitoneal injection: unpublished data; for weight loss or illness after intranasal administration: up to 2 mg/mouse intranasally
EEV [2] = format: cell-based, Vaccinia virus strain WR
[3] = test system: VACV (most likely IMV form); conditions: DS per se at 80 μg/ml; cited from earlier work
VACV strain WR [4] = format: in vivo, mice; conditions: 2 mg polyanion intranasally 2 days post-infection; for benefit with polyanion in mice that received human IgG: Hu anti-VV Ab 500 μg; for weight loss after infection, polyanion alone: non-immune IgG, 1×10^4 pfu
[5] = test system: VACV strain WR-induced actin tails; format: cell-based, Vaccinia virus strain WR
[6] = test system: VACV harvested from supernatant of infected cells (predominantly EEV); format: cell-based, Vaccinia virus strain WR
VACV strain WR [7] = format: in vivo, mice; conditions: 3×10^3 pfu, polyanion intranasally on one and three days post-infection
EEV [8] = format: cell-based, Vaccinia virus
EEV membrane = test system: EEV membrane; parameters: species or system Vaccinia virus strain WR
VACV strain WR [9] = format: cell-based, Vaccinia virus strain WR
VACV strain WR [10] = test system: VACV strain WR; parameters: species or system mice; conditions: mouse, in vivo
CEV outer membrane = format: cell-based, Vaccinia virus strain WR

| Substance | adverse effects after intraperitoneal injection [1] | relative effectiveness at rendering EEV sensitive to anti-IMV antibody (EEV [2]) | protection with polyanion in mice passively immunised with rabbit anti-IMV IgG (VACV strain WR [4]) | benefit with polyanion in mice that received human IgG (VACV strain WR [4]) | weight loss after infection, polyanion alone (VACV strain WR [4]) | actin tails formed in cells that made actin tails [5] | cells found to make actin tails [5] | infectivity of virus in the supernatant of VACV-infected cells [6] | neutralizing activity of both antisera [6] | weight loss or illness after intranasal administration [1] | benefit in vivo at lower virus challenge (VACV strain WR [7]) | virus infectivity in the supernatant (EEV [2]) | further results |
| --- | --- | --- | --- | --- | --- | --- | --- | --- | --- | --- | --- | --- | --- |
| dextran sulphate [DS-HMW] | did not affect the mice adversely | more potent than HP and DS; also recorded: more effective than DS with lower molecular weight |  |  |  |  |  |  |  |  |  |  | body weight reduction ([1]; 2 mg/mouse intranasally, after 2 days): 15%; weight loss or illness after intranasal administration ([1]; listed as high MW DS): increased respiratory effort, followed by breathing difficulty |
| dextran sulphate [DS] |  |  | potentiated the therapeutic effect of this Ab | less effective | slightly less weight loss | significantly fewer actin tails were formed | 15% | did not reduce the infectivity | 56-63% | did not cause weight loss or illness | confirmed | abolished virus infectivity | inhibition of VACV [3]: only partially inhibit VACV |
| heparin [HP-HWM] |  | more potent than HP and DS; also recorded: more effective than heparin with lower molecular weight |  |  |  |  |  |  |  |  |  |  |  |
| heparin [HP] | did not affect the mice adversely | more effective at the dose tested than desulphated HP | provided protection to a level equivalent to rabbit IgG generated against live infection | provided similar benefit | slightly less weight loss | significantly fewer actin tails were formed | 15% | did not reduce the infectivity | 55-61% | did not cause weight loss or illness | confirmed | abolished virus infectivity | binding of virus (EEV [8]): neither binding nor entry of virus was affected significantly; entry of virus (intracellular cores) (EEV [8]): neither binding nor entry of virus was affected significantly; surface of virions associated with EEV membrane (EEV membrane): 46.4%; titre of virus released into the culture medium (VACV strain WR [9]): no significant difference; titre of virus that remained cell-associated (VACV strain WR [9]): no significant difference; reduction of level of virus in lungs (VACV strain WR [10]): about 10 fold; reduction of levels of virus in the brain (VACV strain WR [10]): > 100 fold; virus titres, HP in absence of anti-VACV Ab (VACV strain WR [10]): titres were lower than in the absence of HP; actin tails seen by EM (CEV outer membrane): actin tails were rarely seen; outer membrane of CEV bound to the cell surface (CEV outer membrane): disrupted the outer membrane of CEV |
